From patent US11845748B2, “Bicyclic pyridine N-oxide derivatives useful as a factor XIa inhibitors” (Janssen Pharmaceutica NV, priority 2021, dated 2023)

target: Factor XIa (Homo sapiens, UniProt P03951); test: Factor XIa inhibition assay utilizing a fluorophore-quencher pair peptide substrate (FLINT); type: biochemical; details: end point read at 30 min; 30 min preincubation; 5Fam-KLTRAETV-K5Tamra substrate; read-out: FXIa (EP) IC50
Text: Biological Example 1: Factor XIa Inhibition Assay Utilizing a Fluorophore-Quencher Pair Peptide Substrate
A fluorescence intensity (FLINT) based assay was used to monitor inhibition of Factor XIa. The peptide substrate, 5Fam-KLTRAETV-K5Tamra (purchased from New England Peptide) was chosen based on the […]. Conversion of zymogen […]. The custom peptide used in this assay was based on the Arg146 cleavage site of FXI. The peptide substrate was designed with a fluorophore-quencher pair, where the fluorescence is quenched until FXIa cleaves the 8-mer peptide after the Arg residue. The substrate KM was fit to a substrate inhibition model whereby kcat=0.86 s^−1, KM=12.4 μM, Ki=61.6 μM with an enzymatic efficiency, and kcat/KM=69523 M^−1s^−1.
The Factor XIa FLINT assay was used with the following 5Fam-KLTRAETV-K5Tamra assay buffer: 50 mM Tris, pH 7.5, 100 mM NaCl, 5 mM CaCl2, 0.1 mg/mL BSA, 0.03% CHAPS. Assay buffer was prepared by mixing all ingredients fresh. 5Fam-KLTRAETV-K5Tamra peptide substrate was first prepared at 10 mM in 100% DMSO, then diluted to 3 mM in 100% DMSO. Assay buffer was then added directly to the 3 mM stock of substrate to prepare the 30 μM 2× working concentration (15 μM final concentration). The 2× Factor XIa stock solution was prepared by diluting 6.562 μM stock in 1× assay buffer for a 200 pM working stock solution (100 pM final concentration).
Test compound(s) were run in an 11-point, 3-fold serial dilution with a final top compound concentration of 100 nM. Final DMSO in assay was 2%. FXIa was preincubated with compound for 30-minutes and then substrate was added to initiate the reaction. The assay was run with either end point (EP) reads at 30 min or kinetic (KIN) reads at 5 min intervals over 30 minutes. The time course was linear using 100 μM FXIa greater than 30 minutes. More specifically, the assay was run as follows: • 100 nL of 0.01 mM test compound was dispensed into black 384-well non-binding Greiner BioOne 784900 plate for 0.1 μM final concentration; • 5 μL of 1× assay buffer was dispensed to column 24 (low control) and 5 μL 2× Factor XIa solution was dispensed to columns 1-23 (column 23 high control); • the plate was centrifuged with a “cover” plate at 500 rpm for 1 min the plate was pre-incubated for 30 minutes at room temperature with plate covered; • 5 μL of 2× 5Fam-KLTRAETV-K5Tamra peptide substrate was dispensed into the entire plate, columns 1-24; • the plate was centrifuged with a “cover” plate at 500 rpm for 1 min; • the plate was read monitoring fluorescence intensity on the BMG PHERAStar at room temperature, using fluorescence module 485 nm/520 nm.
Percent inhibition (IC50) curves were generated per compound tested, and data was analyzed using a 4-parameter logistic fit using GeneData Screener. The relative fluorescence unit (RFU) values were normalized to percent inhibition using the following equation: % inhibition=((HC−LC)−(compound−LC)/(HC−LC))*100 where LC—low control=mean signal of no Factor XIa or 100% inhibition of Factor XIa; HC—high control=mean signal of Factor XIa+5Fam-KLTRAETV-K5Tamra peptide substrate with DMSO only.
An 11-point dose response curve for the test compound(s) was generated using GENDATA to determine IC50 value based on the following equation: Y=Bottom+(Top−Bottom)/(1+10^((log IC50−X)*HillSlope))
where Y is the % inhibition in the presence of X inhibitor concentration, Top=high control=mean signal of Factor XIa+5Fam-KLTRAETV-K5Tamra peptide substrate with DMSO only; Bottom=low control−mean signal of no Factor XIa or 100% inhibition of Factor XIa; HillSlope—Hill coefficient; and IC50=concentration of compound with 50% inhibition in relation to top/high control. […]

Chain of Factor XIa (P03951 388-625 limits assumed): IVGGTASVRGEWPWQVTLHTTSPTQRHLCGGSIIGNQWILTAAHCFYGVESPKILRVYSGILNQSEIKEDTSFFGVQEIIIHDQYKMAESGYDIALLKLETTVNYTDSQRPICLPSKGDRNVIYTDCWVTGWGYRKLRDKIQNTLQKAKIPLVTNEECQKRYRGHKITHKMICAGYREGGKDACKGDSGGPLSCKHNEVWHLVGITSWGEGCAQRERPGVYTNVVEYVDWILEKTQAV
Chain of Factor XIa (P03951 19-387 partner limits assumed): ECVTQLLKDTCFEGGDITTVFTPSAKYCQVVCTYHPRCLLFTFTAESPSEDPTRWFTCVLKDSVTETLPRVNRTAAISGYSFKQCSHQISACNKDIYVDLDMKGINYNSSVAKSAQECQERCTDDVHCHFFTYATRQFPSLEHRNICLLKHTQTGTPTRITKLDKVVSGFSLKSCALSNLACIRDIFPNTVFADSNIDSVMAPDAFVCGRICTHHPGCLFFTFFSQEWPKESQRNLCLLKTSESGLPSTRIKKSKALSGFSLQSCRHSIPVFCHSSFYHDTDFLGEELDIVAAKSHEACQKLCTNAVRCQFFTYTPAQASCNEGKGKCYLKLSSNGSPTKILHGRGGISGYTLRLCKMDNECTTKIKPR

Row | Compound | IC50
1 | O=C(O)c1ccc(-c2ccn(C3CCc4cc(-c5cc(Cl)ccc5-n5cnnn5)c[n+]([O-])c43)n2)cc1 (racemic) [ID No. 3, 7-(3-(4-Carboxyphenyl)-1H-pyrazol-1-yl)-3-(5-chloro-2-(1H-tetrazol-1-yl)phenyl)-6,7-dihydro-5H-cyclopenta[b]pyridine 1-oxide] | 320 nM
2 | COC(=O)Nc1ccc(-c2ccn(C3CCc4cc(-c5cc(Cl)ccc5-n5cnnn5)c[n+]([O-])c43)n2)cc1 (racemic) [ID No. 5, 3-(5-Chloro-2-(1H-tetrazol-1-yl)phenyl)-7-(3-(4-((methoxycarbonyl)amino)phenyl)-1H-pyrazol-1-yl)-6,7-dihydro-5H-cyclopenta[b]pyridine 1-oxide] | 109 nM
3 | O=C(O)c1cccc(-c2cnn(C3CCc4cc(-c5cc(Cl)ccc5-n5cnnn5)c[n+]([O-])c43)c2)c1 (racemic) [ID No. 6, 7-(4-(3-Carboxyphenyl)-1H-pyrazol-1-yl)-3-(5-chloro-2-(1H-tetrazol-1-yl)phenyl)-6,7-dihydro-5H-cyclopenta[b]pyridine 1-oxide] | 79 nM
4 | COC(=O)Nc1ccc(-c2cnn(C3CCc4cc(-c5cc(Cl)ccc5-n5cnnn5)c[n+]([O-])c43)c2)cc1 (racemic) [ID No. 7, 3-(5-Chloro-2-(1H-tetrazol-1-yl)phenyl)-7-(4-(4-((methoxycarbonyl)amino)phenyl)-1H-pyrazol-1-yl)-6,7-dihydro-5H-cyclopenta[b]pyridine 1-oxide] | 9 nM
5 | Nc1ccc(-c2cnn(C3CCc4cc(-c5cc(Cl)ccc5-n5cnnn5)c[n+]([O-])c43)c2)c(F)n1 (racemic) [ID No. 10, 7-(4-(6-Amino-2-fluoropyridin-3-yl)-1H-pyrazol-1-yl)-3-(5-chloro-2-(1H-tetrazol-1-yl)phenyl)-6,7-dihydro-5H-cyclopenta[b]pyridine 1-oxide] | 27 nM
6 | Nc1ccc(-c2cnn(C3CCc4cc(-c5c(-n6cnnn6)ccc(Cl)c5F)c[n+]([O-])c43)c2)c(F)n1 (racemic) [ID No. 11, 7-(4-(6-Amino-2-fluoropyridin-3-yl)-1H-pyrazol-1-yl)-3-(3-chloro-2-fluoro-6-(1H-tetrazol-1-yl)phenyl)-6,7-dihydro-5H-cyclopenta[b]pyridine 1-oxide] | 11 nM
7 | COC(=O)Nc1ccc(-c2cnn(C3CCc4cc(-c5cc(Cl)ccc5OCC(F)(F)F)c[n+]([O-])c43)c2)cc1 (racemic) [ID No. 15, 3-(5-Chloro-2-(2,2,2-trifluoroethoxy)phenyl)-7-(4-(4-((methoxycarbonyl)amino)phenyl)-1H-pyrazol-1-yl)-6,7-dihydro-5H-cyclopenta[b]pyridine 1-oxide] | 1690 nM
8 | COC(=O)Nc1ccc(-c2cn(C3CCc4cc(-c5c(-n6cnnn6)ccc(Cl)c5F)c[n+]([O-])c43)nc2C)cc1 (single isomer, unassigned) [ID No. 14, (S*)-3-(3-Chloro-2-fluoro-6-(1H-tetrazol-1-yl)phenyl)-7-(4-(4-((methoxycarbonyl)amino)phenyl)-3-methyl-1H-pyrazol-1-yl)-6,7-dihydro-5H-cyclopenta[b]pyridine 1-oxide] | 16 nM
9 | O=C(O)c1ccc2nn(C3CCc4cc(-c5cc(Cl)ccc5-n5cnnn5)c[n+]([O-])c43)cc2c1 (centres unmarked) [ID No. 1, 7-(5-Carboxy-2H-indazol-2-yl)-3-(5-chloro-2-(1H-tetrazol-1-yl)phenyl)-6,7-dihydro-5H-cyclopenta[b]pyridine 1-oxide] | 2850 nM

Further molecules by falling IC50, results first:

Row | IC50 | Compound
10 | 3260 nM | COC(=O)Nc1ccc(-c2cnn(C3CCc4cc(-c5c(-n6cnnn6)ccc(Cl)c5F)c[n+]([O-])c43)c2)cc1 (single isomer, unassigned) [ID No. 8, (R*)3-(3-Chloro-2-fluoro-6-(1H-tetrazol-1-yl)phenyl)-7-(4-(4-((methoxycarbonyl)amino)phenyl)-1H-pyrazol-1-yl)-6,7-dihydro-5H-cyclopenta[b]pyridine 1-oxide]
11 | 1010 nM | O=C(O)c1cccc(-c2ccn(C3CCc4cc(-c5cc(Cl)ccc5-n5cnnn5)c[n+]([O-])c43)n2)c1 (racemic) [ID No. 4, 7-(3-(3-Carboxyphenyl)-1H-pyrazol-1-yl)-3-(5-chloro-2-(1H-tetrazol-1-yl)phenyl)-6,7-dihydro-5H-cyclopenta[b]pyridine 1-oxide]
12 | 837 nM | COC(=O)Nc1ccc(-c2cn(C3CCc4cc(-c5c(-n6cnnn6)ccc(Cl)c5F)c[n+]([O-])c43)nc2C)cc1 (single isomer, unassigned) [ID No. 13, (R*)3-(3-Chloro-2-fluoro-6-(1H-tetrazol-1-yl)phenyl)-7-(4-(4-((methoxycarbonyl)amino)phenyl)-3-methyl-1H-pyrazol-1-yl)-6,7-dihydro-5H-cyclopenta[b]pyridine 1-oxide]
13 | 220 nM | Nc1ccc(-c2cnn(C3CCc4cc(-c5cc(Cl)ccc5-n5cnnn5)c[n+]([O-])c43)c2)cc1 (racemic) [ID No. 12, 7-(4-(4-Aminophenyl)-1H-pyrazol-1-yl)-3-(5-chloro-2-(1H-tetrazol-1-yl)phenyl)-6,7-dihydro-5H-cyclopenta[b]pyridine 1-oxide]
14 | 3 nM | COC(=O)Nc1ccc(-c2cnn([C@@H]3CCc4cc(-c5c(-n6cnnn6)ccc(Cl)c5F)c[n+]([O-])c43)c2)cc1 [ID No. 9, (R)-3-(3-chloro-2-fluoro-6-(1H-tetrazol-1-yl)phenyl)-7-(4-(4-((methoxycarbonyl)amino)phenyl)-1H-pyrazol-1-yl)-6,7-dihydro-5H-cyclopenta[b]pyridine 1-oxide]
